Data taken from article PMC5218480 (PLoS ONE, 2017).

Test system: MV-4-11 cells
Assay: Gene expression microarray analysis (Affymetrix PrimeView) and GSEA
Type: cell-based, human
Parameters: RFU PODN (11730768_x_at) / Fold change /veh PODN (11730768_x_at) / RFU LINC00158 (11744669_a_at) / Fold change /veh LINC00158 (11744669_a_at) / RFU DUSP10 (11751237_a_at) / Fold change /veh DUSP10 (11751237_a_at) / RFU ID3 (11757404_x_at) / Fold change /veh ID3 (11757404_x_at) / RFU PLEKHG5 (11737974_s_at) / Fold change /veh PLEKHG5 (11737974_s_at) / RFU LRRC4B (11730491_at) / Fold change /veh LRRC4B (11730491_at) / RFU GIMAP4 (11747438_a_at) / Fold change /veh GIMAP4 (11747438_a_at) / RFU KRT8 (11758183_x_at) / Fold change /veh KRT8 (11758183_x_at) / RFU CNN1 (11734310_a_at) / Fold change /veh CNN1 (11734310_a_at) / RFU VPS37D (11726825_at) / Fold change /veh VPS37D (11726825_at) / RFU C10orf10 (11716522_x_at) / Fold change /veh C10orf10 (11716522_x_at) / RFU KIR2DL2 /// KIR2DL4 /// KIR2DL5A /// KIR2DL5B /// KIR2DS1 /// KIR2DS2 /// KIR2DS3 /// KIR2DS4 /// KIR3DL3 /// KIR3DL3 /// KIR3DS1 (11738374_at) / Fold change /veh KIR2DL2 /// KIR2DL4 /// KIR2DL5A /// KIR2DL5B /// KIR2DS1 /// KIR2DS2 /// KIR2DS3 /// KIR2DS4 /// KIR3DL3 /// KIR3DL3 /// KIR3DS1 (11738374_at) / RFU C1QL1 (11718748_at) / Fold change /veh C1QL1 (11718748_at) / RFU TMPRSS4 (11747572_a_at) / Fold change /veh TMPRSS4 (11747572_a_at) / RFU HAMP (11756126_x_at) / Fold change /veh HAMP (11756126_x_at) / RFU RNFT2 (11725882_a_at) / Fold change /veh RNFT2 (11725882_a_at) / RFU NR4A2 (11747474_a_at) / Fold change /veh NR4A2 (11747474_a_at) / RFU ABCC12 (11746883_a_at) / Fold change /veh ABCC12 (11746883_a_at) / RFU TMEM136 (11760407_x_at) / Fold change /veh TMEM136 (11760407_x_at) / RFU CLDN22 /// WWC2 (11732394_at) / Fold change /veh CLDN22 /// WWC2 (11732394_at) / RFU HLA-DPB1 (11760878_x_at) / Fold change /veh HLA-DPB1 (11760878_x_at) / RFU SPINT1 (11716480_a_at) / Fold change /veh SPINT1 (11716480_a_at) / RFU GAP43 (11754022_s_at) / Fold change /veh GAP43 (11754022_s_at) / RFU A4GNT (11735810_at) / Fold change /veh A4GNT (11735810_at) / RFU PRB3 (11715151_x_at) / Fold change /veh PRB3 (11715151_x_at) / RFU TUBB4B (11761932_at) / Fold change /veh TUBB4B (11761932_at) / RFU CAPN14 (11732068_a_at) / Fold change /veh CAPN14 (11732068_a_at) / RFU TMCC2 (11721928_a_at) / Fold change /veh TMCC2 (11721928_a_at) / RFU IRGQ (11745062_a_at) / Fold change /veh IRGQ (11745062_a_at) / RFU FAM174B (11720279_a_at) / Fold change /veh FAM174B (11720279_a_at) / RFU TMPRSS4 (11748680_a_at) / Fold change /veh TMPRSS4 (11748680_a_at) / RFU FAM212B (11763350_a_at) / Fold change /veh FAM212B (11763350_a_at) / RFU PLEKHG5 (11743358_a_at) / Fold change /veh PLEKHG5 (11743358_a_at) / RFU ZSCAN30 (11745921_a_at) / Fold change /veh ZSCAN30 (11745921_a_at) / RFU CMKLR1 (11741424_a_at) / Fold change /veh CMKLR1 (11741424_a_at) / RFU LOC101060620 /// MAPK8IP1 (11723275_at) / Fold change /veh LOC101060620 /// MAPK8IP1 (11723275_at) / RFU SPTSSB (11747773_x_at) / Fold change /veh SPTSSB (11747773_x_at) / RFU PRSS12 (11739890_at) / Fold change /veh PRSS12 (11739890_at) / RFU BIN1 (11741810_x_at) / Fold change /veh BIN1 (11741810_x_at) / RFU WNT11 (11732464_a_at) / Fold change /veh WNT11 (11732464_a_at) / RFU C10orf10 (11716521_a_at) / Fold change /veh C10orf10 (11716521_a_at) / RFU C5orf56 (11738089_at) / Fold change /veh C5orf56 (11738089_at) / RFU CYB561 (11721691_x_at) / Fold change /veh CYB561 (11721691_x_at) / RFU ANKRD19P (11752326_a_at) / Fold change /veh ANKRD19P (11752326_a_at) / RFU OR2T12 /// OR2T33 /// OR2T8 (11738714_s_at) / Fold change /veh OR2T12 /// OR2T33 /// OR2T8 (11738714_s_at) / RFU VCAN (11748164_a_at) / Fold change /veh VCAN (11748164_a_at) / RFU JSRP1 (11732532_at) / Fold change /veh JSRP1 (11732532_at) / RFU KRTAP10-11 (11738290_x_at) / Fold change /veh KRTAP10-11 (11738290_x_at) / RFU MYO3A (11730013_a_at) / Fold change /veh MYO3A (11730013_a_at) / RFU EBF3 (11725865_a_at) / Fold change /veh EBF3 (11725865_a_at) / RFU CAMK2N1 (11719241_x_at) / Fold change /veh CAMK2N1 (11719241_x_at) / RFU C5orf56 (11738088_a_at) / Fold change /veh C5orf56 (11738088_a_at) / RFU OLFML3 (11715873_a_at) / Fold change /veh OLFML3 (11715873_a_at) / RFU LOC100653217 /// NTM (11731650_a_at) / Fold change /veh LOC100653217 /// NTM (11731650_a_at) / RFU MAPK11 (11762145_a_at) / Fold change /veh MAPK11 (11762145_a_at) / RFU FIZ1 (11724087_x_at) / Fold change /veh FIZ1 (11724087_x_at) / RFU OASL (11726364_x_at) / Fold change /veh OASL (11726364_x_at) / RFU SOX15 (11748057_x_at) / Fold change /veh SOX15 (11748057_x_at) / RFU CD79A (11719716_a_at) / Fold change /veh CD79A (11719716_a_at) / RFU HIST1H1D (11736915_at) / Fold change /veh HIST1H1D (11736915_at) / RFU CASKIN2 (11723855_a_at) / Fold change /veh CASKIN2 (11723855_a_at) / RFU LOC730098 (11760151_x_at) / Fold change /veh LOC730098 (11760151_x_at) / RFU OR4N2 (11742367_at) / Fold change /veh OR4N2 (11742367_at) / RFU PRRT2 (11749266_a_at) / Fold change /veh PRRT2 (11749266_a_at) / RFU SNX32 (11753110_a_at) / Fold change /veh SNX32 (11753110_a_at) / RFU CDHR5 (11726645_a_at) / Fold change /veh CDHR5 (11726645_a_at) / RFU RCAN1 (11760418_a_at) / Fold change /veh RCAN1 (11760418_a_at) / RFU FAM167A (11723789_a_at) / Fold change /veh FAM167A (11723789_a_at) / RFU FAM26E (11764081_at) / Fold change /veh FAM26E (11764081_at) / RFU ISYNA1 (11749810_s_at) / Fold change /veh ISYNA1 (11749810_s_at) / RFU ACY1 (11761880_at) / Fold change /veh ACY1 (11761880_at) / RFU 11764098_at / Fold change /veh 11764098_at / RFU SAMD14 (11745864_x_at) / Fold change /veh SAMD14 (11745864_x_at) / RFU NPB (11741838_a_at) / Fold change /veh NPB (11741838_a_at) / RFU TMPRSS6 (11731388_a_at) / Fold change /veh TMPRSS6 (11731388_a_at) / RFU KRTAP10-2 (11738614_at) / Fold change /veh KRTAP10-2 (11738614_at) / RFU ARHGAP8 /// PRR5-ARHGAP8 (11727945_x_at) / Fold change /veh ARHGAP8 /// PRR5-ARHGAP8 (11727945_x_at) / RFU KRTAP5-7 /// NADSYN1 (11734609_at) / Fold change /veh KRTAP5-7 /// NADSYN1 (11734609_at) / RFU RASL12 (11751679_a_at) / Fold change /veh RASL12 (11751679_a_at) / RFU CDKN2B (11736163_a_at) / Fold change /veh CDKN2B (11736163_a_at) / RFU PRF1 (11729649_at) / Fold change /veh PRF1 (11729649_at) / RFU, ZNF638 /// ZNF638-IT1 / Fold change vs veh, ZNF638 /// ZNF638-IT1 / RFU, PANK3 / Fold change vs veh, PANK3 / RFU, SH3YL1 / Fold change vs veh, SH3YL1 / RFU, ZEB2 / Fold change vs veh, ZEB2 / RFU, NRIP1 / Fold change vs veh, NRIP1 / RFU, PTTG1IP / Fold change vs veh, PTTG1IP / RFU, CAPN2 / Fold change vs veh, CAPN2 / RFU, MED14 / Fold change vs veh, MED14 / RFU, SNORA58 / Fold change vs veh, SNORA58 / RFU, C1orf63 / Fold change vs veh, C1orf63 / RFU, LRRFIP1 / Fold change vs veh, LRRFIP1 / RFU, NDUFAF7 / Fold change vs veh, NDUFAF7 / RFU, SLC12A2 / Fold change vs veh, SLC12A2 / RFU, IBTK / Fold change vs veh, IBTK / RFU, ESF1 / Fold change vs veh, ESF1 / Fold change vs veh, TMEM50B / RFU, TAOK1 / Fold change vs veh, TAOK1 / RFU, ACBD3 / Fold change vs veh, ACBD3 / RFU, TMA16 / Fold change vs veh, TMA16 / RFU, RWDD3 / Fold change vs veh, RWDD3 / RFU, BCAT1 / Fold change vs veh, BCAT1 / RFU, EDEM3 / Fold change vs veh, EDEM3 / RFU, TMEM33 / Fold change vs veh, TMEM33 / RFU, WDR75 / Fold change vs veh, WDR75 / RFU, AHCTF1 / Fold change vs veh, AHCTF1 / RFU, TFRC / Fold change vs veh, TFRC / RFU, ZDHHC17 / Fold change vs veh, ZDHHC17 / RFU, NOM1 / Fold change vs veh, NOM1 / RFU, ARL8B / Fold change vs veh, ARL8B / RFU, ZBTB11 / Fold change vs veh, ZBTB11 / RFU, TAMM41 / Fold change vs veh, TAMM41 / RFU, KIAA1704 /// LOC100996395 / Fold change vs veh, KIAA1704 /// LOC100996395 / RFU, ING1 / Fold change vs veh, ING1 / RFU, TRMT61B / Fold change vs veh, TRMT61B / RFU, FUBP3 / Fold change vs veh, FUBP3 / RFU, TP53 / Fold change vs veh, TP53 / RFU, TNKS2 / Fold change vs veh, TNKS2 / RFU, ZFP14 / Fold change vs veh, ZFP14 / RFU, ACTR2 / Fold change vs veh, ACTR2 / RFU, PPP3R1 / Fold change vs veh, PPP3R1 / RFU, PIK3R1 / Fold change vs veh, PIK3R1 / RFU, HNRNPA1 / Fold change vs veh, HNRNPA1 / RFU, RNF170 / Fold change vs veh, RNF170 / RFU, ZNF28 / Fold change vs veh, ZNF28 / RFU, RNGTT / Fold change vs veh, RNGTT / RFU, OGT / Fold change vs veh, OGT / RFU, BRD1 / Fold change vs veh, BRD1 / RFU, MARS / Fold change vs veh, MARS / RFU, ZNF655 / Fold change vs veh, ZNF655 / RFU, FAHD1 / Fold change vs veh, FAHD1 / RFU, BDP1 / Fold change vs veh, BDP1 / RFU, LRRCC1 / Fold change vs veh, LRRCC1 / RFU, ARID1A / Fold change vs veh, ARID1A / RFU, ZNF146 / Fold change vs veh, ZNF146 / RFU, ZNF330 / Fold change vs veh, ZNF330 / RFU, GPN3 / Fold change vs veh, GPN3 / RFU, C9orf123 / Fold change vs veh, C9orf123 / RFU, N4BP2L2 / Fold change vs veh, N4BP2L2 / RFU, ARFIP1 / Fold change vs veh, ARFIP1 / RFU, FAM179B / Fold change vs veh, FAM179B / RFU, BCL10 / Fold change vs veh, BCL10 / RFU, UHRF1BP1L / Fold change vs veh, UHRF1BP1L / RFU, BET1 / Fold change vs veh, BET1 / RFU, CNOT2 / Fold change vs veh, CNOT2 / RFU, ZNF268 / Fold change vs veh, ZNF268 / Fold change vs veh, ZNF507 / RFU, DGCR2 / Fold change vs veh, DGCR2 / RFU, WDSUB1 / Fold change vs veh, WDSUB1 / Fold change vs veh, HSP90B1 /// MIR3652 / RFU, ADSS / Fold change vs veh, ADSS / RFU, GK / Fold change vs veh, GK / RFU, ZNF148 / Fold change vs veh, ZNF148 / RFU, TAF9 / Fold change vs veh, TAF9 / RFU, SLC1A5 / Fold change vs veh, SLC1A5 / RFU, SLMO2 / Fold change vs veh, SLMO2 / RFU, ABCC4 / Fold change vs veh, ABCC4 / RFU, LOC101060439 /// RAP1B / Fold change vs veh, LOC101060439 /// RAP1B / RFU, RFX7 / Fold change vs veh, RFX7 / RFU, GTPBP10 / Fold change vs veh, GTPBP10 / RFU, CNEP1R1 / Fold change vs veh, CNEP1R1 / RFU, BIVM-ERCC5 /// ERCC5 / Fold change vs veh, BIVM-ERCC5 /// ERCC5 / RFU, ILF3 / Fold change vs veh, ILF3 / RFU 11762660_at / Fold change /veh 11762660_at / RFU VCAN (11757783_s_at) / Fold change /veh VCAN (11757783_s_at) / RFU DDX43 (11728927_at) / Fold change /veh DDX43 (11728927_at) / RFU KRT8 (11758188_x_at) / Fold change /veh KRT8 (11758188_x_at) / RFU NKD1 (11759106_at) / Fold change /veh NKD1 (11759106_at) / RFU SRD5A1 (11742802_a_at) / Fold change /veh SRD5A1 (11742802_a_at) / RFU TPSAB1 /// TPSB2 (11721975_s_at) / Fold change /veh TPSAB1 /// TPSB2 (11721975_s_at) / RFU GSTM3 (11746129_a_at) / Fold change /veh GSTM3 (11746129_a_at) / RFU IL23R (11737362_x_at) / Fold change /veh IL23R (11737362_x_at) / RFU TMEM51 (11727254_a_at) / Fold change /veh TMEM51 (11727254_a_at) / RFU PIWIL2 (11732686_x_at) / Fold change /veh PIWIL2 (11732686_x_at) / RFU ORM1 (11744905_x_at) / Fold change /veh ORM1 (11744905_x_at) / RFU CCDC152 (11743942_at) / Fold change /veh CCDC152 (11743942_at) / RFU ECM1 (11717891_a_at) / Fold change /veh ECM1 (11717891_a_at) / RFU IL23R (11748794_a_at) / Fold change /veh IL23R (11748794_a_at) / RFU TNFAIP8L3 (11732012_x_at) / Fold change /veh TNFAIP8L3 (11732012_x_at) / RFU MBOAT4 (11741988_at) / Fold change /veh MBOAT4 (11741988_at) / RFU 11764193_at / Fold change /veh 11764193_at / RFU TMEM53 (11763286_at) / Fold change /veh TMEM53 (11763286_at) / RFU MAGEB2 (11727129_at) / Fold change /veh MAGEB2 (11727129_at) / RFU TMEM200A (11744735_a_at) / Fold change /veh TMEM200A (11744735_a_at) / RFU CCDC152 (11751479_a_at) / Fold change /veh CCDC152 (11751479_a_at) / RFU FAM211A (11726209_a_at) / Fold change /veh FAM211A (11726209_a_at) / RFU RGS16 (11746705_a_at) / Fold change /veh RGS16 (11746705_a_at) / RFU VCAN (11755009_s_at) / Fold change /veh VCAN (11755009_s_at) / RFU RHOB (11743442_s_at) / Fold change /veh RHOB (11743442_s_at) / RFU RGS16 (11720943_a_at) / Fold change /veh RGS16 (11720943_a_at) / RFU RGS16 (11720944_at) / Fold change /veh RGS16 (11720944_at) / RFU, VPS4B / Fold change vs veh, VPS4B / RFU, CREB1 / Fold change vs veh, CREB1 / RFU, DNAJC13 / Fold change vs veh, DNAJC13 / RFU, GNAQ / Fold change vs veh, GNAQ / RFU, CDK5R1 / Fold change vs veh, CDK5R1 / RFU, ZRANB3 / Fold change vs veh, ZRANB3 / RFU, CUL4A / Fold change vs veh, CUL4A / RFU, CCNY / Fold change vs veh, CCNY / RFU, UFL1 / Fold change vs veh, UFL1 / RFU, COG3 / Fold change vs veh, COG3 / RFU, DIAPH2 / Fold change vs veh, DIAPH2 / RFU, SKA2 / Fold change vs veh, SKA2 / RFU, AFF3 / Fold change vs veh, AFF3 / RFU, LMF1 / Fold change vs veh, LMF1 / RFU, IPO11 / Fold change vs veh, IPO11 / RFU, DFFB / Fold change vs veh, DFFB / RFU, FOXP1 / Fold change vs veh, FOXP1 / RFU, CARD8 / Fold change vs veh, CARD8 / RFU, STRN3 / Fold change vs veh, STRN3 / RFU, ADK / Fold change vs veh, ADK / RFU, RASSF2 / Fold change vs veh, RASSF2 / RFU, WIPF1 / Fold change vs veh, WIPF1 / RFU, LARP1B / Fold change vs veh, LARP1B / RFU, RASA1 / Fold change vs veh, RASA1 / RFU, RB1 / Fold change vs veh, RB1 / RFU, PPFIA1 / Fold change vs veh, PPFIA1 / RFU, MAT2A / Fold change vs veh, MAT2A / RFU, CCT5 / Fold change vs veh, CCT5 / RFU, WDR92 / Fold change vs veh, WDR92 / RFU, CUX1 / Fold change vs veh, CUX1 / RFU, TTC7A / Fold change vs veh, TTC7A / RFU, TMEM135 / Fold change vs veh, TMEM135 / RFU, DEPTOR / Fold change vs veh, DEPTOR / RFU, CPM / Fold change vs veh, CPM / RFU, DNAJB6 / Fold change vs veh, DNAJB6 / RFU, CACNA2D3 / Fold change vs veh, CACNA2D3 / RFU, DTX4 / Fold change vs veh, DTX4 / RFU, TFCP2 / Fold change vs veh, TFCP2 / RFU, GMCL1 /// GMCL1P1 / Fold change vs veh, GMCL1 /// GMCL1P1 / RFU, AEBP2 / Fold change vs veh, AEBP2 / RFU, SNHG1 /// SNORD22 /// SNORD25 /// SNORD26 /// SNORD27 /// SNORD28 /// SNORD29 /// SNORD31 / Fold change vs veh, SNHG1 /// SNORD22 /// SNORD25 /// SNORD26 /// SNORD27 /// SNORD28 /// SNORD29 /// SNORD31 / Fold change (Aza/veh), C12orf56 (ProbeSet 11735607_a_at) / Fold change (ACY-1035/veh), C12orf56 (ProbeSet 11735607_a_at) / Fold change (Aza/veh), FGFR1OP (ProbeSet 11751329_s_at) / Fold change (ACY-1035/veh), FGFR1OP (ProbeSet 11751329_s_at) / Fold change (Aza/veh), VPS36 (ProbeSet 11739960_a_at) / Fold change (ACY-1035/veh), VPS36 (ProbeSet 11739960_a_at) / RFU SYPL1 (11715823_x_at) / Fold change /veh SYPL1 (11715823_x_at) / RFU IGFBP7 (11715501_s_at) / Fold change /veh IGFBP7 (11715501_s_at) / RFU REEP3 (11722064_at) / Fold change /veh REEP3 (11722064_at) / RFU IGLL1 (11728026_x_at) / Fold change /veh IGLL1 (11728026_x_at): dose or concentration left out as unconfirmed
Conditions: MV-4-11 cells, 48 hours

## Nc1ccc(-c2cccs2)cc1NC(=O)c1ccc2c(c1)cc(C1CC1)n2CCN1CCOCC1 [ACY-1035]
  RFU CYB561 (11721691_x_at): 11.94 RFU
